Drawing on patent US12091426B2, “Bifunctional degraders of hematopoietic progenitor kinase and therapeutic uses thereof” (Nurix Therapeutics, Inc., priority 2021, dated 2024), this text covers DC50 and Dmax for three molecules.

For this test, the target named is T1, HPK1 (Homo sapiens, UniProt Q92918).
T1 construct: A HiBiT tag was introduced by CRISPR on the N terminus of HPK1 in Jurkat cells; host or cells: Jurkat cells (ATCC TIB-152), monoclonal line with CRISPR knock-in of HiBiT at the endogenous HPK1 locus
The test can be described thus: HPK1 Cellular HiBit Degradation Assay. The test is classed as cell-based. As to conditions: HiBiT HPK1 Jurkat cells, 24 hrs; for DC50: concentration at which 50% of HPK1 was remaining, read-out: DC50 Category; for Dmax: Jurkat, maximum degradation vs DMSO vehicle control, read-out: Dmax Category. The method, boiled down: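 Jurkat cells with CRISPR knock-in N-terminal HiBiT-HPK1 were treated with CTMs (11-point, 3.16-fold, 10 uM to 0.1 nM final) for 24 hrs at 37° C. HiBiT lytic luminescence, with parental Jurkat as background and DMSO as 100%, gave % HPK1 remaining; four-parameter fit yielded DC50 and Dmax (100 minus lowest % remaining).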
For orientation: With HiBiT, luminescence reflects the tagged protein that the partner subunit can reach.

T1 sequence (Q92918 whole entry): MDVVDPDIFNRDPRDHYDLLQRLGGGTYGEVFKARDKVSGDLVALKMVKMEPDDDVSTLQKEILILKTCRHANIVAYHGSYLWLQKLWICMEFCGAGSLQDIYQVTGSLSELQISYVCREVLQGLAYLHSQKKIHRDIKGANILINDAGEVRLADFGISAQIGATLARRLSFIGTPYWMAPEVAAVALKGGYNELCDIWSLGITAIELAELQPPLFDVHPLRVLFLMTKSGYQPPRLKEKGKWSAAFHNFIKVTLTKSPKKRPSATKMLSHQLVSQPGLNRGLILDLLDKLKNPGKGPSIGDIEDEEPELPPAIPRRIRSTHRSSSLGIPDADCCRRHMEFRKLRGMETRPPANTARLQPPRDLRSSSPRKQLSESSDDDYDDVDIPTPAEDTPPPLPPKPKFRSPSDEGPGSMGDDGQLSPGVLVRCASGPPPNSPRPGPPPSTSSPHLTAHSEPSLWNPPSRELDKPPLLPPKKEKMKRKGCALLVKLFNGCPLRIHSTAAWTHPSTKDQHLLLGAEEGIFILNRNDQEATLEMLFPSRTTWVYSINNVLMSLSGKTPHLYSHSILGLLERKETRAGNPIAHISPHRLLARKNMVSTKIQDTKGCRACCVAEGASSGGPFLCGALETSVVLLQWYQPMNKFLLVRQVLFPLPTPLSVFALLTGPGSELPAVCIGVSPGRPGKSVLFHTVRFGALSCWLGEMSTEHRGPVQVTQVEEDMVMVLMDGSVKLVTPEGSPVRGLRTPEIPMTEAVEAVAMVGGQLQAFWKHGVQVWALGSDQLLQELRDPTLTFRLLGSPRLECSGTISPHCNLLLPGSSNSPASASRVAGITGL

Usually DC50 stands for the concentration at which degradation of the target reaches its halfway point. For orientation: Dmax means the largest share of the target that was removed. For the molecule `CC(C)n1cnc2cc(-c3ccc4c(c3)N([C@H]3C[C@@H](N5CCCCC5)C3)C(=O)C43CCN(C(=O)[C@H]4[C@@H]5C[C@H]4CN(C(=O)C4CCN(c6ccc(C7CCC(=O)NC7=O)cn6)CC4)C5)CC3)nc(NC3CC3)c21` (stereo partly drawn) [Example 239, 3-(6-(4-((1R,5S,6S)-6-(6-(4-(cyclopropylamino)-3-isopropyl-3H-imidazo[4,5-c]pyridin-6-yl)-2-oxo-1-((1S,3S)-3-(piperidin-1-yl)cyclobutyl)spiro[indoline-3,4′-piperidine]-1′-carbonyl)-3-Azabicyclo[3.1.1]heptane-3-carbonyl)piperidin-1-yl)pyridin-3-yl)piperidine-2,6-dione], the DC50 is less than 100 nM and the Dmax fell in the range of 50 to 70%.

`CC(C)n1cnc2cc(-c3ccc4c(c3)N([C@H]3C[C@@H](N5CCCCC5)C3)C(=O)C43CCN(C(=O)C4[C@@H]5C[C@H]4CN(C(=O)CC4CCN(c6ccc(C7CCC(=O)NC7=O)cn6)CC4)C5)CC3)nc(NC3CC3)c21` (stereo partly drawn) [Example 240, 3-(6-(4-(2-((1R,5S,6S)-6-(6-(4-(cyclopropylamino)-3-isopropyl-3H-imidazo[4,5-c]pyridin-6-yl)-2-oxo-1-((1S,3S)-3-(piperidin-1-yl)cyclobutyl)spiro[indoline-3,4′-piperidine]-1′-carbonyl)-3-azabicyclo[3.1.1]heptan-3-yl)-2-oxoethyl)piperidin-1-yl)pyridin-3-yl)piperidine-2,6-dione]: the DC50 is less than 100 nM and the Dmax is more than 85%.

On to `CC(C)n1cnc2cc(-c3ccc4c(c3)N([C@H]3C[C@@H](N5CCCCC5)C3)C(=O)C43CCN(C(=O)C4C5CC4CN(C(=O)[C@H]4CC[C@H](Oc6ccc(C7CCC(=O)NC7=O)cc6)CC4)C5)CC3)nc(NC3CC3)c21` (stereo partly drawn) [Example 241, 3-(4-{[(1R,4R)-4-[6-({6-[4-(cyclopropylamino)-3-(propan-2-yl)-3H-imidazo[4,5-c]pyridin-6-yl]-2-oxo-1-[(1S,3S)-3-(piperidin-1-yl)cyclobutyl]-1,2-dihydrospiro[indole-3,4′-piperidin]-1′-yl}carbonyl)-3-azabicyclo[3.1.1]heptane-3-carbonyl]cyclohexyl]oxy}phenyl)piperidine-2,6-dione], for which the DC50 is less than 100 nM and the Dmax was more than 85%.
